Key:
[1] = Thermal decomposition of dioxetanes monitored by decay of chemiluminescence (activation parameters in xylene); assay type: physicochemical
Description: Rates of dioxetane decomposition were monitored by the decay of chemiluminescence of aerated solutions. A cylindrical Pyrex vial equipped with magnet stir bar was filled with 3-4 mL of the reaction solvent, sealed with a Teflon-lined screw cap and placed in the thermostatted sample block of the chemiluminescence-measuring apparatus (Black Box). Temperature control was provided by an external circulating water bath. Appropriate values for the instrument gain and optical slit size were selected. […]. The vial was sealed with a Teflon-lined screw cap to prevent evaporation when high temperatures were used. Measurement of the signal was begun by opening the shutter. The chemiluminescent decay was generally recorded for at least three half-lives. Calculation of the first-order rate constant, k, from the In(Intensity) vs. time data was performed by a computer program utilizing a standard least-squares treatment. The correlation coefficient, r, was typically at least 0.999 and varied less than 5% between replicate samples. The observed rate was not measurably concentration dependent.
Activation parameters for decomposition of the dioxetanes were calculated from plots of In k vs. 1/T (Arrhenius eq.) or In k/t vs. 1/T (Eyring eq.) by a standard least-squares linear regression analysis.
Activation Energies for Decomposition of Dioxetanes 2 in Xylene.

[2] = for fluoride induced chemiluminescence in polar aprotic solvents: polar aprotic solvents such as acetonitrile
Description: (§1) A solution of the dioxetane in a suitable solvent (e.g. o-xylene) was placed in the reaction vial as described above. The vial was placed in the sample holder which was maintained at a temperature such that thermal decomposition of the dioxetane was negligible. Instrument parameters were selected as above and data collection started. A solution of the releasing agent (e.g. base or fluoride) preferably in the reaction solvent was injected by syringe into the rapidly stirred dioxetane solution. The volume of releasing agent added was generally less than 5% of the total volume so that temperature fluctuation of the sample during the time course of the decay was minimal. The pseudo-first order decay was monitored for at least three half-lives.
2. Triggering the Chemiluminescence of Silyloxy-Substituted Dioxetanes with Fluorde Ion: Fluoride ion induced decomposition of 2c. […]. […]. A spectrum of the chemiluminescence obtained from the fluoride triggering of 2c in 1:1 aqueous/2-methoxyethanol is shown in FIG. 1 with the solid line. The fluorescence of the cleavage product (methyl 6-hydroxy-2-naphthoate) from the dioxetane is also shown with the dashed line for comparison.

[3] = Triggering the chemiluminescence of hydroxy-substituted dioxetanes with base; settings: for base-induced chemiluminescence: base-induced decomposition, room temperature (2b: potassium t-butoxide in o-xylene, 25° C.)
Description: as §1
1. Triggering the Chemiluminescence of Hydroxy-Substituted Dioxetanes with Base: Potassium tert-butoxide induced decomposition of 2b. […].

[4] = Triggering properties of further prepared dioxetanes (general statement)
[5] = test system: alkaline phosphatase from Bovine Intestinal Mucosa; experiment: Enzymatic triggering of chemiluminescence with alkaline phosphatase (Type VII-S); assay type: biochemical; settings: 2-amino-2-methyl-1-propanol buffer pH 10.3, 1.5M, 37° C., 10 μL enzyme suspension
Description: A cuvette containing 3 mL of a buffer solution of 2-amino-2-methyl-l-propanol (Sigma Chemical Co., pH=10.3, 1.5M) was placed in the black box at 37° C. A portion (200 μL) of the dioxetane stock solution (6d in CH2 Cl2) was added to this buffer solution. Subsequent addition of 10 μL of an alkaline phosphatase suspension [Sigma, Type VII-S from Bovine Intestinal Mucosa, suspension in 3.2M (NH4)2 SO4 ] gave rise to chemiluminescence over a period of approximately 2-3 min indicating the enzymatic triggering of the dioxetane.

[6] = test system: Aryl esterase (carboxylic ester hydrolase) from porcine liver; experiment: Enzymatic triggering of chemiluminescence with aryl esterase; assay type: biochemical; settings: for effect of added competing esterase substrate on light intensity: […] solution added at maximum emission of 2e, pH 7.6 phosphate buffer, 37° C.
Description: (§2) A secondary stock solution of the acetate-protected dioxetane 2e was made by evaporating an aliquot of the methylene chloride stock equivalent to 10 micromoles of dioxetane and dissolving in 5.0 mL of 2-methoxyethanol to give a final concentration of 0.002M. […] Buffer solutions prepared in distilled water were 0.05M phosphate pH 7.6 and 8.0, 0.02M Tris (tris-hydroxymethylaminomethane maleate) pH 7.6, and pH 9.0 phosphate/borate buffer. Aryl esterase (also called carboxylic ester hydrolase (P-5221)) from porcine liver was purchased from Sigma Chemical Co. as a suspension of 11 mg of protein per mL in 3.2M (NH4)2 SO4 solution pH 8.0. Each mg of protein is equivalent to 260 Units, where 1 Unit is defined as the amount which will hydrolyze 1 micromole of ethyl butyrate in 1 minute at pH 8.0, 25° C. […] Injection of 1 μL of (0.26 units) of aryl esterase to the stirred solution caused a chemiluminescent signal to appear. The intensity reached a maximum at about 3 minutes and decayed over a 30 minute period.
3.) When distilled water was substituted for the Tris buffer, no chemiluminescence signal was observed, but on adding Tris buffer to this solution light emission similar to that above was produced. […] Addition of untreated enzyme preparation to this solution again produced light. […] The emission could be totally extinguished by addition of sufficient SDS. The decrease in light emission is not due to photophysical quenching of the excited state since thermal decomposition in the same solvent system at elevated temperatures results in readily detectable chemiluminescence.
This type of behavior explains the effect of the addition of the known esterase substrates α-naphthyl acetate and β-naphthyl acetate. […] A solution of 25 μL of the dioxetane stock (0.002M) in 3 mL of pH 7.6 phosphate buffer maintained at 37° C. was treated with 5 μL of the enzyme to initiate the chemiluminescence. At the point of maximum emission […] of 0.011M solution of either α- or β-naphthyl acetate were added.

[7] = assay type: physicochemical; settings: 0.002M in 2-methoxyethanol, stored at 0° C.
Description: as §2
Stability of Enzyme and Dioxetane to Reaction Conditions. Many dioxetanes are known to be destroyed via a non-luminescent pathway by acid catalyzed processes in protic solvents. Similarly, amines are also known to cause the catalytic destruction of dioxetanes via an electron-transfer process. […]

[8] = target: T1, Acetylcholinesterase from human erythrocytes (Homo sapiens, UniProt P22303); experiment: Enzymatic triggering of chemiluminescence with acetylcholinesterase; assay type: biochemical; settings: 0.05M phosphate buffer, pH 8.0, 37.0° C.
T1 construct: purchased Sigma Chemical Co. C-3389; host or cells: human erythrocytes
T1 sequence (P22303 other isoform, or with tags, fused parts or gaps): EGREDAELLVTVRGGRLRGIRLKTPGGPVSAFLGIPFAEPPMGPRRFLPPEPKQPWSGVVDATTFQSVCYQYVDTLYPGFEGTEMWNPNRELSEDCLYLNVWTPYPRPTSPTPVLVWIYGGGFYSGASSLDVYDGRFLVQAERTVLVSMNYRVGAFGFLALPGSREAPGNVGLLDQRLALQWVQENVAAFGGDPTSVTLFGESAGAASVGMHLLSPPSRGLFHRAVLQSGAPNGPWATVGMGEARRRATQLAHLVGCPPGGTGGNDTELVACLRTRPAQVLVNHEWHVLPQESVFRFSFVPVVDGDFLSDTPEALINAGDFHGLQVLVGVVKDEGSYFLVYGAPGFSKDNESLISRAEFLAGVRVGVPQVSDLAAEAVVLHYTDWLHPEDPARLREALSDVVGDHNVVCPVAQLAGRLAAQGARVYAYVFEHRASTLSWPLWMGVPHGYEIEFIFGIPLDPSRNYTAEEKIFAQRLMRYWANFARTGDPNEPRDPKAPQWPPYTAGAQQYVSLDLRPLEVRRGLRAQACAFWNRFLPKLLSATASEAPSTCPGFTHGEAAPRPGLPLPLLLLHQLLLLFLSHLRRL
From the text: Acetylcholinesterase, an enzyme of considerable biological significance, hydrolyzes acetylcholine to choline and acetic acid under physiological conditions. It was of interest to determine whether this enzyme would also initiate the chemiluminescent decomposition of the acetyl-protected dioxetane 2e by removal of the acetyl group. Acetylcholinesterase (C-3389) from human erythrocytes was purchased from Sigma Chemical Co. as a lyophilized powder containing phosphate buffer salts. […]. Addition of more dioxetane during this period generated more light.

[9] = 25° C.; cited from earlier work
[10] = 1 μL (0.26 units) aryl esterase, pH 7.6 Tris buffer, 25° C.

COC1(c2ccc3cc(O[Si](C)(C)C(C)(C)C)ccc3c2)OOC12C1CC3CC(C1)CC2C3 (stereo not shown) [Dioxetane 2c]
Ea (activation energy for decomposition) ([1]; decomposition in xylene): 27.0
half-life of chemiluminescence decay, fluoride ion induced ([2]; 10^-4 M dioxetane, 0.01M tetrabutylammonium fluoride in 2-methoxyethanol, room temperature, pseudo-first order, 100 µM): about 20 minutes
fluoride induced chemiluminescence ([2]; tetrabutylammonium fluoride in 2-methoxyethanol): Blue chemiluminescence was produced

Oc1ccc2c(c1)Oc1ccccc1C21OOC12C1CC3CC(C1)CC2C3 (stereo not shown) [Dioxetane 6a]
base-induced chemiluminescence [3]: produced chemiluminescence at room temperature
triggering properties [4]: triggering properties similar to dioxetanes 2a-c and 2e

COC1(c2cccc(O)c2)OOC12C1CC3CC(C1)CC2C3 (stereo not shown) [Dioxetane 8a]
base-induced chemiluminescence [3]: produced chemiluminescence at room temperature

CC(C)(C)[Si](C)(C)Oc1ccc2c(c1)C1(OOC13C1CC4CC(C1)CC3C4)c1ccccc1-2 (stereo not shown) [Dioxetane 4b, Dispiro[adamantane-2,3'-[1,2]dioxetane-4',9"-(2-tert-butyldimethylsilyloxy-9-fluorene)]]
fluoride induced chemiluminescence in polar aprotic solvents [2]: bright chemiluminescence

COC1(c2ccc3cc(O)ccc3c2)OOC12C1CC3CC(C1)CC2C3 (stereo not shown) [Dioxetane 2b, 4-(6-Hydroxy-2-naphthyl)-4-methoxyspiro[1,2-dioxetane-3,2'-adamantane]]
base-induced chemiluminescence [3]: intense blue chemiluminescence
base-induced chemiluminescence with other bases ([3]; methanol with KOH as base, or o-xylene with n-BuLi as base): bright blue chemiluminescence with similar decay rates

O=P(O)(O)Oc1ccc2c(c1)Oc1ccccc1C21OOC12C1CC3CC(C1)CC2C3 (stereo not shown) [Dioxetane 6d, Dispiro[adamantane-2,3'-[1,2]dioxetane-4',9"-(3-phosphate-9H-xanthene]]
period of chemiluminescence after enzyme addition [5]: 2 to 3 min

CC(=O)Oc1cccc2ccccc12 [α-naphthyl acetate, reference compound]
effect of added competing esterase substrate on light intensity [6]: rapid decrease in light intensity

COC1(c2ccc3cc(O[Si](c4ccccc4)(c4ccccc4)C(C)(C)C)ccc3c2)OOC12C1CC3CC(C1)CC2C3 (stereo not shown) [Dioxetane 2d]
fluoride induced chemiluminescence in polar aprotic solvents [2]: bright chemiluminescence
triggering properties [4]: triggering properties similar to dioxetanes 2a-c and 2e

CC(C)(C)[Si](C)(C)Oc1ccc2c(c1)Oc1ccccc1C21OOC12C1CC3CC(C1)CC2C3 (stereo not shown) [Dioxetane 6b]
fluoride induced chemiluminescence in polar aprotic solvents [2]: bright chemiluminescence
triggering properties [4]: triggering properties similar to dioxetanes 2a-c and 2e

Oc1ccc2c(c1)C1(OOC13C1CC4CC(C1)CC3C4)c1ccccc1-2 (stereo not shown) [Dioxetane 4a]
base-induced chemiluminescence [3]: produced chemiluminescence at room temperature
triggering properties [4]: triggering properties similar to dioxetanes 2a-c and 2e

COC1(c2cccc(O[Si](C)(C)C(C)(C)C)c2)OOC12C1CC3CC(C1)CC2C3 (stereo not shown) [Dioxetane 8b, 4-(3-tert-Butyldimethylsilyloxyphenyl)-4-methoxyspiro[1,2-dioxetane-3,2'-adamantane]]
fluoride induced chemiluminescence in polar aprotic solvents [2]: bright chemiluminescence

CC(=O)Oc1ccc2ccccc2c1 [β-naphthyl acetate, reference compound]
effect of added competing esterase substrate on light intensity [6]: rapid decrease in light intensity

CCCCCCCCCCCCOS(=O)(=O)[O-].[Na+] [sodium lauryl sulfate (SDS), sodium lauryl sulfate, reference compound]
effect of enzyme inhibitor on light emission ([6]; added at maximum emission of 2e, Tris buffer, 1.5 μL enzyme): irreversible decrease in the intensity

COC1(c2ccc3cc(OC(C)=O)ccc3c2)OOC12C1CC3CC(C1)CC2C3 (stereo not shown) [Dioxetane 2e, 4-(6-Acetoxy-2-naphthyl)-4-methoxyspiro[1,2-dioxetane-3,2'-adamantane]]
duration of thermal chemiluminescence ([1]; aliquot injected into 3 mL of o-xylene at 95° C.): persisted for several hours
period over which chemiluminescence decayed [6, 10]: 30 min
time at which chemiluminescence intensity reached a maximum [6, 10]: about 3 minutes
maximum light intensity IMAX versus temperature ([6]; 1 μL enzyme in Tris buffer at 25, 37 and 50° C.): increased with increasing temperature
chemiluminescence with enzyme medium only ([6]; 3 mL Tris buffer containing 5 μL of 3 M (NH4)2SO4, no enzyme, 25° C.): produced no chemiluminescence
chemiluminescence signal without enzyme ([6]; 150 μL (0.3 μmol) dioxetane stock in 3.0 mL pH 7.6 Tris buffer, 25° C., before enzyme): no chemiluminescence signal was detected
chemiluminescence with denatured enzyme ([6]; enzyme heated to 90° C. in Tris buffer and cooled to 25° C.): resulted in no chemiluminescence
stability of stock solution on storage [7]: stable indefinitely
duration of light emission [8]: 20 s

Oc1ccc(C23OCCOC2(c2ccccc2)OO3)cc1 (stereo not shown) [deprotonated dioxetane (X=O^-)]
decomposition rate relative to protonated form (X=OH) [9]: 5.7×10^6 times faster

CC(=O)Oc1ccc2c(c1)Oc1ccccc1C21OOC12C1CC3CC(C1)CC2C3 (stereo not shown) [Dioxetane 6c]
triggering properties [4]: triggering properties similar to dioxetanes 2a-c and 2e

Reference: patent US5707559A, “Chemiluminescent 1,2-dioxetane compounds” (priority 1987, dated 1998)
